Source: ChEMBL document CHEMBL3045209, “Synthesis of a novel barbiturate from 1-chloro-2,4-dinitrobenzene as an anticonvulsant agent” (2008)
Calls of active or inactive are those of the source. The calls are words filed in the database; no cut-off is given here.

How the values were obtained:
Rattus norvegicus [1] = assay: Anticonvulsant activity against maximal electroshock-induced convulsion in Rattus norvegicus albino (rat) assessed as tonic extensor convulsion time at 100 mg/kg administered 1 hr before test; type: functional
Rattus norvegicus [2] = assay: Anticonvulsant activity against maximal electroshock-induced convulsion inRattus norvegicus albino (rat) assessed as stupor convulsion time at 50 mg/kg administered 1 hr before test; type: functional
Rattus norvegicus [3] = assay: Anticonvulsant activity against maximal electroshock-induced convulsion in Rattus norvegicus albino (rat) assessed as tonic flexor convulsion time at 25 mg/kg administered 1 hr before test; type: functional
Rattus norvegicus [4] = assay: Anticonvulsant activity against maximal electroshock-induced convulsion in Rattus norvegicus albino (rat) assessed as stupor convulsion time at 25 mg/kg administered 1 hr before test; type: functional
Rattus norvegicus [5] = assay: Anticonvulsant activity against maximal electroshock-induced convulsion in Rattus norvegicus albino (rat) assessed as clonus convulsion time at 50 mg/kg administered 1 hr before test; type: functional
Rattus norvegicus [6] = assay: Anticonvulsant activity against maximal electroshock-induced convulsion in Rattus norvegicus albino (rat) assessed as tonic flexor convulsion time at 100 mg/kg administered 1 hr before test; type: functional
Rattus norvegicus [7] = assay: Anticonvulsant activity against maximal electroshock-induced convulsion in Rattus norvegicus albino (rat) assessed as tonic flexor convulsion time at 50 mg/kg administered 1 hr before test; type: functional
Rattus norvegicus [8] = assay: Anticonvulsant activity against maximal electroshock-induced convulsion in Rattus norvegicus albino (rat) assessed as clonus convulsion time at 25 mg/kg administered 1 hr before test; type: functional
Rattus norvegicus [9] = assay: Anticonvulsant activity against maximal electroshock-induced convulsion in Rattus norvegicus albino (rat) assessed as clonus convulsion time at 100 mg/kg administered 1 hr before test; type: functional
Rattus norvegicus [10] = assay: Anticonvulsant activity against maximal electroshock-induced convulsion in Rattus norvegicus albino (rat) assessed as stupor convulsion time at 100 mg/kg administered 1 hr before test; type: functional
Rattus norvegicus [11] = assay: Anticonvulsant activity against maximal electroshock-induced convulsion in Rattus norvegicus albino (rat) assessed as tonic extensor convulsion time at 25 mg/kg administered 1 hr before test; type: functional
Rattus norvegicus [12] = assay: Anticonvulsant activity against maximal electroshock-induced convulsion in Rattus norvegicus albino (rat) assessed as recovery from convulsion at 25 to 100 mg/kg administered 1 hr before test; type: functional, organism-based
Rattus norvegicus [13] = assay: Anticonvulsant activity against maximal electroshock-induced convulsion in Rattus norvegicus albino (rat) assessed as tonic extensor convulsion time at 50 mg/kg administered 1 hr before test; type: functional
Rattus norvegicus [14] = assay: Anticonvulsant activity against maximal electroshock-induced convulsion in Rattus norvegicus albino (rat) assessed as recovery from convulsion at 25 mg/kg administered 1 hr before test; type: functional, organism-based; design: dose 25 mg/kg

O=C1CC(=O)NC(=O)N1 [BARBITURIC ACID]
Time (Rattus norvegicus [1]): 2 s
Time (Rattus norvegicus [2]): 82.2 s
Time (Rattus norvegicus [3]): 4.2 s
Time (Rattus norvegicus [4]): 105.5 s
Time (Rattus norvegicus [5]): 5.1 s
Time (Rattus norvegicus [6]): 2.9 s
Time (Rattus norvegicus [7]): 3.1 s
Time (Rattus norvegicus [8]): 7.2 s
Time (Rattus norvegicus [9]): 5.6 s
Time (Rattus norvegicus [10]): 85.7 s
Time (Rattus norvegicus [11]): 13.2 s
Activity (Rattus norvegicus [12]): Active
Time (Rattus norvegicus [13]): 6.5 s

O=C1NC(=O)C(c2ccccc2)(c2ccccc2)N1 [PHENYTOIN]
Time (Rattus norvegicus [3]): 2.66 s
Time (Rattus norvegicus [4]): 62.1 s
Time (Rattus norvegicus [8]): 4.6 s
Activity (Rattus norvegicus [14]): Active
Time (Rattus norvegicus [11]): 0 s
